# Reference: patent publication US11191811B2, “Osteocalcin as a treatment for frailty associated with aging” (THE TRUSTEES OF COLUMBIA UNIVERSITY IN THE CITY OF NEW YORK, priority 2014, dated 2021)
# How the values were obtained:
# [1] = tested on: wild type mice injected with gold thioglucose (GTG); test: GTG-induced obesity; type: in vivo, mouse
# Protocol: FIG. 5. Osteocalcin subcutaneous infusion alleviates GTG-induced obesity in wild-type mice. Wild-type mice were injected with gold thioglucose (GTG) or vehicle to induce hyperphagia and obesity. Two weeks later they were implanted with subcutaneous osmotic pumps infusing […] of recombinant osteocalcin or PBS for 28 days before. Body weight gain was recorded thereafter at indicated days.
# For GTG-induced obesity, male and female 4 week-old wild-type (WT) and Osteocalcin^−/− mice (n=10 per group) were injected with […] of GTG
# The effect of uncarboxylated osteocalcin on GTG-induced obesity was investigated (FIG. 5). Wild type mice were injected with gold thioglucose (GTG) to induce hyperphagia and obesity or vehicle. Two weeks later they were implanted with subcutaneous osmotic pumps infusing 1 ng/hr of recombinant uncarboxylated osteocalcin or PBS for 28 days. […] At 28 days, body weight was reduced by about 15% with uncarboxylated osteocalcin treatment.
# [2] = tested on: Osteocalcin−/− mice; test: Behavioral tests of adult Osteocalcin−/− offspring of osteocalcin-injected pregnant Osteocalcin−/− mothers; type: in vivo, mouse; conditions: 240 ng/day once a day to pregnant mothers, E0.5 to E18.5
# Protocol: FIG. 13. Maternal osteocalcin determines spatial learning and memory in adult offspring. (A-F) DLT (A), EPMT (B), OFT (C), FST (D), TST (E), and MWMT (F) performed in 3-month-old Osteocalcin^−/− mice born from Osteocalcin^−/− mothers injected once a day with vehicle or recombinant uncarboxylated osteocalcin (240 ng/day) during pregnancy compared to WT mice. (G) Surface of the lateral ventricle over brain area (%) of E18.5 hippocampi coronal sections of WT embryos originating from WT mothers and Osteocalcin^−/− embryos originating from osteocalcin-injected Osteocalcin^−/− mothers. (H) Number of apoptotic cells (stained by TUNEL assay) of E18.5 hippocampi coronal sections of WT embryos originating from WT mothers and Osteocalcin^−/− embryos originating from Osteocalcin^−/− mothers injected with osteocalcin (240 ng/day). […]
# For osteocalcin delivery to pregnant mice, IP injections (240 ng/day) were performed as soon as a plug was present daily until delivery (E0.5-E18.5). […] Leptin and osteocalcin content in sera and tissues were determined by ELISA.
# Spatial memory was assessed with Morris water maze (MWM) setup (Morris, 1981, Nature 297:681-683) using a training protocol adapted for mice (D'Hooge et al., 2005, J. Soc. Neurosci. 25:6539-6549). […] Spatial learning is assessed across repeated trials (4 trials/day for 10 days). […]
# [3] = tested on: Leydig cells; test: Testosterone production by testis explants or primary Leydig cells; type: cell-based, mouse; conditions: recombinant uncarboxylated osteocalcin 0-100 ng/ml of culture medium (FIG. 10)
# Protocol: FIG. 10. Osteocalcin favors male fertility by increasing testosterone production by Leydig cells. (A-B) Testosterone production by testis explants (A) or primary Leydig cells (B) cultured in the presence of supernatants of wild type (WT) or Osteocalcin^−/− osteoblast cultures. (C-D) Testosterone production by testis explants (C) or primary Leydig cells (D) following stimulation with increasing doses of recombinant uncarboxylated osteocalcin (0, 0.3, 1, 3, 10, 100 ng/ml of culture medium). (E) Circulating testosterone levels in WT mice 1 hour, 4 hours, and 8 hours after vehicle or recombinant uncarboxylated osteocalcin (3 ng/g of body weight) injection. (F-G) Comparison between the average litter size (F) and frequency (G) generated by WT, Osteocalcin^−/−, or Esp^−/− male littermate mice crossed with WT females (breeding was tested from 6 to 16 weeks of age). (H-L) Testis size (H), testis weight (I), epididymides weight (J), seminal vesicles weight (K), and sperm count (L) in Osteocalcin^−/− and Esp^−/− compared to WT littermate mice. (M) Circulating steroid sex hormone levels in Osteocalcin^−/− and Esp^−/− compared to WT littermate mice. The analyses were performed on breeder and non-breeder mice. Error bars represent SEM. Student's t test (*) P<0.05, (**) P<0.001.
substance,measurement,setting,value
"uncarboxylated osteocalcin: Recombinant uncarboxylated mouse osteocalcin, bacterially produced, purified on glutathione beads and cleaved from the GST subunit by thrombin (YLGASVPSPDPLEPTREQCELNPACDELSDQYGLKTAYKRIYGITI)",body weight gain,"[1]; 1 ng/hr subcutaneous osmotic pumps for 28 days, from 7 days on",significantly reduced
same,reduction of body weight,"[1]; 1 ng/hr, at 28 days",about 15%
same,GTG-induced obesity,[1]; subcutaneous infusion 28 days (FIG. 5 title),alleviates
same,anxiety or depression phenotypes of the offspring,[2],did not have any beneficial effect
same,deficit in learning and memory of the offspring,[2],rescued over two third
same,testosterone production by Leydig cells,[3],increasing
